Laboratory results reported in patent publication US20230355562A1, “METHODS FOR STABILIZING ATHEROSCLEROTIC PLAQUES USING LIPOXINS, RESOLVINS, AND ANALOGS THEREOF” (The Forsyth Institute, priority 2015, published 2023).

How the values were obtained:
[1] = tested on: atherosclerotic plaques; test: Plaque disruption by MRI before and after triggering in a rabbit model of atherosclerosis (cholesterol diet plus balloon injury); format: in vivo, New Zealand White (NZW) rabbits; details: for plaque stabilization: applied to both sides of the mandible on the gingiva every-other-day, high cholesterol diet and balloon injury to descending thoracic and abdominal aortic segments
Procedure: New Zealand White (NZW) rabbits (n=10) received cholesterol-enriched diet (1%) for 8 weeks to develop atherosclerosis. In addition, balloon injury was performed at 2 weeks to advance the atherosclerosis at the descending thoracic and abdominal aortic segments. The […] of cholesterol feeding was followed by a 4 week period of normal chow diet at the end of the experiment. Half of the rabbits were randomized in the experimental (9,12 benzo LXA4-treated) group and half in the control group.
Topical LXA4 (1 mg/ml) was applied on both side of the mandible on the gingiva every-other-day for the duration of the experiment. In vivo MRI images were taken at 12 weeks at before and after triggering. After euthanasia, the aortas were dissected for ex-vivo MRI and histology.

[2] = tested on: polymorphonuclear leukocyte (PMN) infiltration; details: in vivo, mouse model of acute inflammation; cited from earlier work

Row | Molecule | plaque stabilization [1] | segments that showed disruption (post-trigger image showed a luminal thrombus) of segments analyzed ([1]; treatment group, topical 1 mg/ml on gingiva, both sides of the mandible, every-other-day, in vivo MRI at 12 weeks, only one site in one rabbit) | levels of pro-inflammatory cytokines [2] | polymorphonuclear leukocyte (PMN) infiltration [2]
1 | 9,12 benzo LXA4 | sufficient to stabilize atherosclerotic plaques | 2/104 | significantly reducing | significantly reducing
2 | CC[C@@H](O)/C=C/C=C\C[C@@H](O)/C=C/C=C/C=C\[C@@H](O)CCCC(=O)O [Resolvin E1] | sufficient to stabilize atherosclerotic plaques | – | – | –
